Here are results for one molecule from PMC7676912, “Guanosine Tetraphosphate Has a Similar Affinity for Each of Its Two Binding Sites on Escherichia coli RNA Polymerase” (Frontiers in Microbiology, 2020).

SMILES strings stand for the structures. Bounds are passed on as bounds.

Holding throughout (assay): DRaCALA, one-site saturation fit
Holding throughout (type): binding

The target of assay [1] is T1, wild-type RNAP (without DksA; Site 1 only) (Escherichia coli, UniProt P0A800+P0A8T7, P0A800:DEL2-5).
T1 construct: gene rpoZ; recombinant core RNAP, alpha, beta, beta' from one plasmid and omega from a second plasmid, omega saturating; with DNA-directed RNA polymerase subunit alpha; DNA-directed RNA polymerase subunit beta

The target in assay [2] is T2, RNAPΔω with DksA (Site 2 only) (Escherichia coli, UniProt P0A8T7+P0ABS1).
T2 construct: gene rpoC; with DNA-directed RNA polymerase subunit alpha; DNA-directed RNA polymerase subunit beta
The conditions noted are these: read-out: Kd,app.

For assay [3], the target named is T3, wild-type RNAP with DksA (Sites 1 and 2) (Escherichia coli, UniProt P0A800+P0A8T7+P0ABS1).
T3 construct: gene rpoZ; recombinant core RNAP saturated with omega plus saturating purified DksA; with DNA-directed RNA polymerase subunit alpha; DNA-directed RNA polymerase subunit beta
As to conditions: read-out: Kd,app.

For assay [4], the target named is T4, wild-type RNAP with DksA (Sites 1 and 2) (Escherichia coli, UniProt P0A800+P0A8T7+P0ABS1, P0ABS1:K98A).
T4 construct: gene rpoZ; recombinant core RNAP saturated with omega plus saturating purified DksA; with DNA-directed RNA polymerase subunit alpha; DNA-directed RNA polymerase subunit beta

In assay [5] the target is T5, RNAPΔω (no DksA; lacking Sites 1 and 2) (Escherichia coli, UniProt P0A8T7).
T5 construct: gene rpoC; RNAP lacking omega, purified from a ΔrpoZ strain, no DksA added; with DNA-directed RNA polymerase subunit alpha; DNA-directed RNA polymerase subunit beta
As to conditions: read-out: Kd,app.

For assay [6], the target named is T6, wild-type RNAP (without DksA; Site 1 only) (Escherichia coli, UniProt P0A800+P0A8T7).
T6 construct: gene rpoZ; recombinant core RNAP, alpha, beta, beta' from one plasmid and omega from a second plasmid, omega saturating; with DNA-directed RNA polymerase subunit alpha; DNA-directed RNA polymerase subunit beta
The conditions noted are these: read-out: Kd,app.

For assay [7], the target named is T7, wild-type RNAP with DksA (Sites 1 and 2) (Escherichia coli, UniProt P0A800+P0A8T7+P0ABS1, P0ABS1:R129A).
T7 construct: gene rpoZ; recombinant core RNAP saturated with omega plus saturating purified DksA; with DNA-directed RNA polymerase subunit alpha; DNA-directed RNA polymerase subunit beta

Assay [8] deals with T8, wild-type RNAP-TraR complex (Escherichia coli, UniProt P0A800+P0A8T7).
T8 construct: gene rpoZ; recombinant core RNAP saturated with omega plus purified TraR (encoded by F element); ppGpp at Site 1; with DNA-directed RNA polymerase subunit alpha; DNA-directed RNA polymerase subunit beta; Protein TraR
As to conditions: Site 1; TraR present; labelled compound [32P]-ppGpp; unreliable (printed 'at least'; curve did not plateau); non-equilibrium assay.

Assay [9] concerns the target T9, wild-type RNAP-GreB complex (Escherichia coli, UniProt P0A800+P0A8T7).
T9 construct: gene rpoZ; recombinant core RNAP saturated with omega plus purified GreB; ppGpp at Site 1; with DNA-directed RNA polymerase subunit alpha; DNA-directed RNA polymerase subunit beta; Transcription elongation factor GreB
As to conditions: read-out: Kd,app.

On to `Nc1nc2c(ncn2[C@@H]2O[C@H](COP(=O)(O)OP(=O)(O)O)[C@@H](OP(=O)(O)OP(=O)(O)O)[C@H]2O)c(=O)[nH]1` [ppGpp, guanosine 5'-diphosphate 3'-diphosphate], for which the Kd is over 100 µM in assay [1]; 7.9 ± 1.3 µM in [2]; 3.3 ± 1.2 µM in [3]; about 1.3 µM in assay [4]; over 100 µM in [5]; 6.1 ± 1.3 µM in assay [6]. Besides, the Kd is about 1.8 µM in [7] and about 6.4 µM in [9]. The “Kd,app” value in assay [8] is over 4.2 ± 0.6 µM.
